According to US20160008366A1, “BTK INHIBITORS FOR THE TREATMENT OF CNS MALIGNANCIES” (Pharmacyclics LLC, priority 2014, published 2016):
Marks after values point to notes of the source that are not given here.

Legend:
[1] = Quantification of PCI-32765 (ibrutinib) and its metabolite PCI-45227 in human cerebrospinal fluid samples of patient 01-001BF (LC-MS/MS); type: in vivo; settings: for observed in CSF samples: patient 01-001BF after 560 mg of ibrutinib daily; for Calculated Concentration in CSF: patient 01-001BF, ibrutinib 560 mg daily
Method: Samples were obtained from patient (01-001BF), a person with Waldenstrom's macroglobulinemia with amyloid and Bing-Neel syndrome.
Standards and QC sample preparation and data analysis were carried out using the methods described in Example 1. In brief, all samples and standards were prepared on ice. Internal standard (IS) was prepared by addition of d5-PCI-32765 and d5-PCI-45227 in 0.2% formic acid in 1:9 (v/v) water: ACN (acetonitrile).
A100 μL of either a sample or a standard was transferred into each well of a 96-well plate. To each well was added 20 μL of the internal standard solution. […] Next, the 96-well plate was capped and vortexed thoroughly and then centrifuged at 4000 rpm for at least 10 minutes at 4° C.
High performance liquid chromatography (HPLC) (Shimadzu Nexera X2 HPLC system) was coupled with an electrospray ionization triple quadrupole mass spectrometer (AB SCIEX API-6500), and an autosampler (CTC PAL Eksigent). Chromatographic separation was achieved using an XBridge™ Ethylene-Bridged Hybrid (BEH) C18 column, 3.5 μm (2.1×50 mm) (Waters), and a C 18 guard column (2×4 mm) (Phenomenex Security Guard). Mobile phase A was 0.1% formic acid in water and mobile phase B was 100% acetonitrile. In all conditions, the column temperature was at ambient, the autosampler temperature was at 4° C., and the injection volume was 10 μL. The diversion time from HPLC to MS was from 0.5 minutes to 2.5 minutes.
The mass spectrometer (MS) equipped with an ESI source, was operated at a source temperature of 700° C.

[2] = CSF and plasma concentration ratios for ibrutinib and PCI-45227, patient 01-001BF; type: in vivo, human; settings: ibrutinib 560 mg daily; for Kp: human, CSF/plasma, 560 mg daily
[3] = Adsorption test in human CSF to Nunc CryoTube vials; type: physicochemical; settings: incubated for 1 h on ice, Low and High QC
Excerpt: These QC samples were kept in Nunc CryoTube vials for one hour. After an hour, each sample was vortex mixed and assayed against freshly prepared calibration standards. The obtained concentrations of the adsorption test QC samples were compared to the nominal values. The samples were considered to have no adsorption to the Nunc CryoTube vials if the mean value of the obtained concentrations was within 20% of the nominal concentration.

[4] = QC samples bench-top (ice) stability in human CSF; type: in vitro ADME; settings: nominal 0.500 ng/mL, on ice for 2 hours, n=6
[5] = QC samples freeze (−70° C.)/thaw (on ice) stability in human CSF; type: in vitro ADME; settings: nominal 0.500 ng/mL, 3 freeze/thaw cycles, n=6
Method: QC samples stored at −70° C., which were subjected to 3 freeze/thaw (ice) cycles, were measured against freshly prepared calibration standards.

[6] = Short-term storage stability in human CSF at −70±5° C.; type: in vitro ADME; settings: −70±5° C. for at least 7 days, n=6
[7] = cited from earlier work
[8] = Day 1, pre-dose (0 h), BQL = below quantification limit (0.3 ng/mL)

SMILES	observed in CSF samples [1]	Calculated Concentration in CSF ([1]; 1 Month, 3 h)	Calculated Concentration in CSF ([1]; Day 1, 2 h)	Calculated Concentration in CSF [1, 8]	Calculated Concentration in CSF ([1]; Day 1, pre-dose (0 h), BQL = below quantification limit (0.3 ng/mL), listed as Ibrutinib)	Kp ([2]; 1 Month, 3 h)	Kp ([2]; Day 1, 2 h)	adsorption to Nunc Cryo Tube vials [3]	% CSF/Plasma ([2]; 1 Month, 3 h)	% CSF/Plasma ([2]; Day 1, 2 h)	Bench-top QC Low Concentration, Mean [4]	Bench-top QC Low, % Accuracy [4]	F/T3 (−70° C.) Low QC, % Accuracy [5]	F/T3 (−70° C.) Low QC, Mean [5]	Intra-run QC Low, % Accuracy ([6]; nominal 0.500 ng/mL)	Intra-run QC Low, Mean ([6]; nominal 0.500 ng/mL)	Intra-run QC Mid, % Accuracy ([6]; nominal 5.00 ng/mL)	Intra-run QC Mid, Mean ([6]; nominal 5.00 ng/mL)	reported percentage of unbound of the compounds in plasma [7]
C=CC(=O)N1CCC[C@@H](n2nc(-c3ccc(Oc4ccccc4)cc3)c3c(N)ncnc32)C1 [PCI-32765, (R)-1-(3-(4-amino-3-(4-phenoxyphenyl)-1H-pyrazolo[3,4-d]pyrimidin-1-yl)piperidin-1-yl)prop-2-en-1-one]	observed	7.19 ng/mL	15.0 ng/mL	BQL	BQL^a	0.035	0.03	no adsorption	–	–	–	–	–	–	–	–	–	–	–
Nc1ncnc2c1c(-c1ccc(Oc3ccccc3)cc1)nn2[C@@H]1CCCN(C(=O)C(O)CO)C1 (stereo partly drawn) [PCI-45227]	observed	15.4 ng/mL	14.7 ng/mL	BQL and BQL^a	–	–	–	no adsorption	8.5%	6.2%	0.458 ng/mL	91.5%	97.2%	0.486 ng/mL	99.4%	0.497 ng/mL	87.8%	4.39 ng/mL	9%
